Source: ChEMBL document CHEMBL4265889, “Design and synthesis of tetrahydropyridopyrimidine based Toll-Like Receptor (TLR) 7/8 dual agonists” (Bioorg Med Chem Lett, 2018)

Columns and labels:
[1] = Cytotoxicity against HEK293 cells transfected with the CMV-TLR7 construct assessed as reduction in cell viability after 6 hrs by ATPlite assay; assay type: cell-based; settings: human
[2] = biological target: T1, Toll-like receptor 8 (Homo sapiens) (UniProt Q9NR97); assay: Agonist activity at human TLR8 expressed in HEK293 cells after 6 hrs by NFkappaB-luciferase reporter gene assay; assay type: cell-based
T1 sequence (whole entry): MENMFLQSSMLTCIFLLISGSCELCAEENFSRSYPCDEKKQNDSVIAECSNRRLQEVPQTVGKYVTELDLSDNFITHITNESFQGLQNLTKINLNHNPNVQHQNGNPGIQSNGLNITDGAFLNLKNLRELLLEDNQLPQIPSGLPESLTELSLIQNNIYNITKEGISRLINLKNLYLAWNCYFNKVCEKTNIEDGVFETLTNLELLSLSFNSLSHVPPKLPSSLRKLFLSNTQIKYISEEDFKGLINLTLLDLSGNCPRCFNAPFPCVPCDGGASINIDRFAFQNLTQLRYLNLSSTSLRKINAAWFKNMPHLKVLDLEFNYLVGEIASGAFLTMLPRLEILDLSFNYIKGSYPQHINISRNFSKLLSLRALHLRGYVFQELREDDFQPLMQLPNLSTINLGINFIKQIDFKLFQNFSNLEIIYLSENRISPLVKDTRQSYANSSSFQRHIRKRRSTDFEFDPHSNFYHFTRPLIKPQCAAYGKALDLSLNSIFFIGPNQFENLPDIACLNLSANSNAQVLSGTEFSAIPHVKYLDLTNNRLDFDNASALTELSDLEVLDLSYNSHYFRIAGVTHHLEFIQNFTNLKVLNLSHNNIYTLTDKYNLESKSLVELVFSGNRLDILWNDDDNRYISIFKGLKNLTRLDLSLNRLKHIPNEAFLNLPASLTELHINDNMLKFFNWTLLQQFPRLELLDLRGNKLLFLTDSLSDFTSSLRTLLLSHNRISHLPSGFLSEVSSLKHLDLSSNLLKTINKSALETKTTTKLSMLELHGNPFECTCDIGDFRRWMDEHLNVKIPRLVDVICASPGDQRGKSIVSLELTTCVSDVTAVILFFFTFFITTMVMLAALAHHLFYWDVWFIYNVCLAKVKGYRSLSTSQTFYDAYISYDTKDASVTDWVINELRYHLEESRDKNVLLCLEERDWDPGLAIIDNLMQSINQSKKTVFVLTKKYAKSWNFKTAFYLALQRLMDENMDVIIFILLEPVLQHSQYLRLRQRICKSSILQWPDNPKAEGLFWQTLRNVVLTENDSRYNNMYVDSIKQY

[3] = biological target: T2, Toll-like receptor 7 (Homo sapiens) (UniProt Q9NYK1); assay: Agonist activity at TLR7 in human PBMC assessed as suppression of HCV replicon replication in human HuH7 luc/neo cells harboring RNA encoding bicistronic expression construct comprising wild type HCV type 1b NS3-NS5B regions exposed to conditioned media from compound treated PBMCs after 24 hrs by luciferase reporter gene assay; assay type: cell-based
T2 sequence (whole entry): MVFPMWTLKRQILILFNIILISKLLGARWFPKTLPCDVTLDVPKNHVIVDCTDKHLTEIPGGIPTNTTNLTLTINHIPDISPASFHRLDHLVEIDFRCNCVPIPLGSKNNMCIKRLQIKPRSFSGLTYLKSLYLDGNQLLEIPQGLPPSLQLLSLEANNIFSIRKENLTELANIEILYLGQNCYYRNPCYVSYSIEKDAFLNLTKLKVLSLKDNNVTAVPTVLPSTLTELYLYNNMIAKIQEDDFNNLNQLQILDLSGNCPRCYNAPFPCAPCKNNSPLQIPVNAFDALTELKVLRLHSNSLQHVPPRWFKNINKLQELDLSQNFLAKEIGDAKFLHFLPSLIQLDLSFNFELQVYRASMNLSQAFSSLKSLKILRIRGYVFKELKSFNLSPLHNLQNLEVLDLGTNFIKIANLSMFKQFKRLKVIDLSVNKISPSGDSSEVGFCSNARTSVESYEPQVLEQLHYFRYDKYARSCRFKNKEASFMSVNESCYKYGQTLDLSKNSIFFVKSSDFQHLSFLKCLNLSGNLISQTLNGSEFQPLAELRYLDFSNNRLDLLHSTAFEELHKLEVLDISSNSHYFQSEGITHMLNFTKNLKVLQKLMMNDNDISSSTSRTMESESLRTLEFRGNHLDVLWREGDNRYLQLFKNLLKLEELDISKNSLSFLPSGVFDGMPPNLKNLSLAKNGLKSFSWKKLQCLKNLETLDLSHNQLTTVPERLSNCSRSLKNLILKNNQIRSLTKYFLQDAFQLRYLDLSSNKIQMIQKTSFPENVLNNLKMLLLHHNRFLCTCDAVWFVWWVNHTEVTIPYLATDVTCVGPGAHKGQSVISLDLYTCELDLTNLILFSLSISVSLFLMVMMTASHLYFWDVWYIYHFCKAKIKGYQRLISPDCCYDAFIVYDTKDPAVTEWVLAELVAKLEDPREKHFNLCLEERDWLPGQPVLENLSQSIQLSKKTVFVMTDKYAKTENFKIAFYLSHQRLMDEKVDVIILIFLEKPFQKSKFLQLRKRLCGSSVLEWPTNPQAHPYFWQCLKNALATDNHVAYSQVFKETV

[4] = biological target: T2, Toll-like receptor 7 (Homo sapiens); assay: Agonist activity at human TLR7 expressed in HEK293 cells after 6 hrs by NFkappaB-luciferase reporter gene assay; assay type: cell-based
[5] = Drug metabolism in mouse liver microsomes at 1 uM after 15 mins; assay type: ADME, microsome; settings: read-out: Drug metabolism

Row | Structure (SMILES) | CC50 at 6 h [1] | MEC [2] | MEC [3] | MEC [4] | metabolised at 0.25 h, 1 µM [5]
1 | CCCCNc1nc(N)nc2c1CN(C(=O)c1cnc(N)s1)CC2 | > 24 µM | 4.4 µM | 0.38 µM | 2.1 µM | –
2 | CCCCNc1nc(N)nc2c1CN(Cc1ccc(C(F)(F)F)cc1)CC2 | > 24 µM | 0.23 µM | 0.54 µM | 2.8 µM | –
3 | CCCCNc1nc(N)nc2c1CN(C(=O)c1cnccn1)CC2 | > 24 µM | 2.2 µM | 2.38 µM | 3.7 µM | –
4 | CCCCNc1nc(N)nc2c1CN(Cc1ccccn1)CC2 | > 24 µM | 0.07 µM | 0.14 µM | 3.3 µM | –
5 | CCCCNc1nc(N)nc2c1CN(C(=O)c1scnc1C)CC2 | > 24 µM | 5.6 µM | 2.23 µM | 13 µM | –
6 | CCCCNc1nc(N)nc2c1CN(Cc1ccccc1Cl)CC2 | > 24 µM | 0.05 µM | 0.15 µM | 1.5 µM | –
7 | CCCCNc1nc(N)nc2c1CN(Cc1ccc(OC)cc1)CC2 | > 24 µM | 0.08 µM | 0.17 µM | 2.1 µM | –
8 | CCCCNc1nc(N)nc2c1CN(C(=O)c1ccccn1)CC2 | > 24 µM | 2.9 µM | 2.21 µM | 9.5 µM | –
9 | CCCCNc1nc(N)nc2c1CN(C(=O)c1cocn1)CC2 | > 24 µM | 0.2 µM | 0.17 µM | 0.7 µM | –
10 | CCCCNc1nc(N)nc2c1CN(S(C)(=O)=O)CC2 | > 24 µM | 9.9 µM | – | > 25 µM | –
11 | CCCCNc1nc(N)nc2c1CNCC2 | > 24 µM | 7.2 µM | – | > 25 µM | –
12 | CCCCNc1nc(N)nc2c1CN(Cc1ccc(OC(F)(F)F)cc1)CC2 | > 24 µM | 0.24 µM | 0.52 µM | 4.7 µM | –
13 | CCCCNc1nc(N)nc2c1CN(Cc1ccc(-c3ccccc3)cc1)CC2 | > 24 µM | 0.5 µM | 4.49 µM | 14 µM | –
14 | CCCCNc1nc(N)nc2c1CN(Cc1cc(F)cc(F)c1)CC2 | > 24 µM | 0.23 µM | 0.53 µM | 3.5 µM | –
15 | CCCCNc1nc(N)nc2c1CN(C(=O)c1csc(N)n1)CC2 | > 24 µM | 6.9 µM | 1.05 µM | 8 µM | –
16 | CCCCNc1nc(N)nc2c1CN(C(C)=O)CC2 | > 24 µM | 0.5 µM | – | 4.9 µM | –
17 | CCCCNc1nc(N)nc2c1CN(C(=O)c1ccncc1)CC2 | > 24 µM | > 25 µM | 3.56 µM | > 25 µM | –
18 | CCCCNc1nc(N)nc2c1CCN(S(C)(=O)=O)C2 | > 24 µM | 0.8 µM | – | 20 µM | –
19 | CCCCNc1nc(N)nc2c1CN(C)CC2 | > 24 µM | 0.03 µM | – | 9.6 µM | –
20 | CCCCNc1nc(N)nc2c1CCN(CCc1ccccc1)C2 | > 24 µM | 0.2 µM | – | 6.5 µM | –
21 | CCCCNc1nc(N)nc2c1CN(Cc1cccc(Cl)c1Cl)CC2 | > 24 µM | 0.18 µM | 0.25 µM | 1.5 µM | –
22 | CCCCNc1nc(N)nc2c1CN(Cc1cccc(OC)c1Cl)CC2 | > 24 µM | 0.04 µM | 0.05 µM | 1 µM | –
23 | CCCCNc1nc(N)nc2c1CN(Cc1ccccc1)CC2 | > 24 µM | 0.06 µM | – | 1.6 µM | –

Row | Structure (SMILES) | CC50 at 6 h [1] | MEC [2] | MEC [3] | MEC [4] | metabolised at 0.25 h, 1 µM [5]
24 | CCCCNc1nc(N)nc2c1CN(C(=O)c1cc(C)on1)CC2 | > 24 µM | 0.4 µM | 0.22 µM | 0.8 µM | –
25 | CCOCc1nc2c(N)nc3ccccc3c2n1CC(C)(C)O | – | 0.3 µM | – | 0.1 µM | –
26 | CCCCNc1nc(N)nc2c1CCN(C(C)=O)C2 | > 24 µM | 0.4 µM | – | 5.8 µM | –
27 | CCCCNc1nc(N)nc2c1CCNC2 | > 24 µM | 0.6 µM | – | 8.9 µM | –
28 | CCCCNc1nc(N)nc2c1CCN(C)C2 | > 24 µM | 0.2 µM | – | 10 µM | –
29 | CCCCNc1nc(N)nc2c1CN(C(=O)c1cscn1)CC2 | > 24 µM | 0.5 µM | 0.17 µM | 1.2 µM | –
30 | CCCCNc1nc(N)nc2c1CN(C(=O)C1CCC1)CC2 | > 24 µM | 0.4 µM | 0.23 µM | 0.8 µM | –
31 | CCCCNc1nc(N)nc2c1CN(Cc1cccs1)CC2 | > 24 µM | 0.14 µM | 0.16 µM | 2.5 µM | –
32 | CCCCNc1nc(N)nc2c1CN(Cc1ccncc1)CC2 | > 24 µM | 0.29 µM | 0.5 µM | 5.2 µM | –
33 | CCCCNc1nc(N)nc2c1CN(Cc1cccnc1)CC2 | > 24 µM | 0.13 µM | 0.15 µM | 3 µM | –
34 | CCCCNc1nc(N)nc2c1CN(C(=O)C(C)C)CC2 | > 24 µM | 1.6 µM | 1.8 µM | 8.1 µM | –
35 | CCCCNc1nc(N)nc2c1CN(Cc1ccc(C(C)(C)C)cc1)CC2 | > 24 µM | 0.66 µM | 2.79 µM | 19 µM | –
36 | CCCCNc1nc(N)nc2c1CN(Cc1c(Cl)cccc1Cl)CC2 | > 24 µM | 0.14 µM | 0.19 µM | 2.4 µM | –
37 | CCCCNc1nc(N)nc2c1CN(C(=O)c1csnn1)CC2 | > 24 µM | 0.1 µM | 0.15 µM | 0.9 µM | –
38 | CCCCNc1nc(N)nc2c1CCN(Cc1ccccc1)C2 | > 24 µM | 0.4 µM | – | 11 µM | –
39 | CCCCNc1nc(N)nc2c1CN(C(=O)c1ccccc1)CC2 | > 24 µM | 1.4 µM | – | 1.5 µM | –
40 | CCCCNc1nc(N)nc2c1CN(C(=O)CC)CC2 | > 24 µM | 0.4 µM | 0.53 µM | 2.3 µM | –
41 | CCCCNc1nc(N)nc2c1CN(Cc1cccc3ccccc13)CC2 | > 24 µM | 0.43 µM | 0.43 µM | 1.3 µM | –
42 | CCCCNc1nc(N)nc2c1CN(C(=O)c1cccs1)CC2 | > 24 µM | 0.4 µM | 0.07 µM | 0.2 µM | 99%
43 | CCCCNc1nc(N)nc2c1CN(Cc1ccco1)CC2 | > 24 µM | 0.08 µM | 0.07 µM | 3.7 µM | –
44 | CCCCNc1nc(N)nc2c1CN(C(=O)c1cnc(C)cn1)CC2 | > 24 µM | 6.8 µM | 1.07 µM | 11 µM | –
45 | CCCCNc1nc(N)nc2c1CN(CCc1ccccc1)CC2 | > 24 µM | 0.2 µM | – | 1.8 µM | –
46 | CCCCNc1nc(N)nc2c1CN(Cc1c[nH]c3ccccc13)CC2 | > 24 µM | 0.22 µM | 0.18 µM | > 20 µM | –
